Here are results for 17 compounds from ChEMBL document CHEMBL5233269, “Anticancer potential of spirocompounds in medicinal chemistry: A pentennial expedition” (Eur J Med Chem, 2021).

Series [1] concerns MCF7. In words: Antiproliferative activity against human MCF7 cells assessed as inhibition of cell viability. It counts as functional, cell-based.
The next series deals with K562. The series can be described thus: Antiproliferative activity against human K562 cells assessed as inhibition of cell viability. It counts as functional, cell-based.
A further series deals with ECa-109 cell line. In words: Cytotoxicity against human EC109 cells assessed as inhibition of tumor cell proliferation incubated for 72 hrs by MTT assay. It counts as functional, cell-based. Conditions: ECa-109, 72 h. A general note: Formazan colour is commonly taken as a measure of viable cells.
Another series relates to SMMC-7721. The series can be described thus: Cytotoxicity against human SMMC-7721 cells assessed as inhibition of tumor cell proliferation incubated for 72 hrs by MTT assay. It counts as functional, cell-based. Conditions: SMMC-7721, 72 h.
In series [2] the test system is A549. The series can be described thus: Cytotoxicity against human A549 cells assessed as inhibition of tumor cell proliferation incubated for 72 hrs by MTT assay. It counts as functional, cell-based. Conditions: A549, 72 h.
The test system of a further series is MGC-803. The series can be described thus: Cytotoxicity against human MGC-803 cells assessed as inhibition of tumor cell proliferation incubated for 72 hrs by MTT assay. It counts as functional, cell-based. The settings on record: MGC-803, 72 h.
Series [3] has as its system A-375. In words: Cytotoxicity against human A-375 cells at 10 ug/ml incubated for 24 hrs by MTT assay. It counts as functional. The settings on record: dose 10 µg/ml.
Series [4] has as its system A-375. In words: Cytotoxicity against human A-375 cells at 100 ug/ml incubated for 24 hrs by MTT assay. It counts as functional. Conditions: dose 100 µg/ml.
The next series deals with A-431. In words: Anticancer activity against human A-431 cells. It counts as functional, cell-based.
Series [5] has as its system MCF7. In words: Anticancer activity against human MCF7 cells assessed as reduction of cell growth. It counts as functional, cell-based.
Series [6] concerns PC-3. The series can be described thus: Anticancer activity against human PC-3 cells assessed as reduction of cell growth. It counts as functional, cell-based.
Series [7] in a line: Anticancer activity against human MCF-10A cells assessed as reduction of cell growth. It counts as toxicity, cell-based.
In series [8] the test system is MCF7. In words: Anticancer activity against human MCF7 cells incubated for 48 hrs by MTT assay. It counts as functional, cell-based. The settings on record: MCF7, 48 h.
The test system of series [9] is A549. In words: Anticancer activity against human A549 cells incubated for 48 hrs by MTT assay. It counts as functional, cell-based. Conditions: A549, 48 h.
The subject of series [10] is HepG2. In words: Anticancer activity against human HepG2 cells incubated for 48 hrs by MTT assay. It counts as functional, cell-based. Conditions: HepG2, 48 h.
Another series deals with HCT-116. The series can be described thus: Anticancer activity against human HCT-116 cells incubated for 48 hrs by MTT assay. It counts as functional, cell-based. The settings on record: HCT-116, 48 h.
A short description of series [11]: Anticancer activity against human U87 cells incubated for 48 hrs by MTT assay. It counts as functional, cell-based, U-87MG ATCC. The settings on record: U-87 MG.
The test system of series [12] is MCF7. In words: Antiproliferative activity against human MCF7 cells by MTT assay. It counts as functional, cell-based.
In series [13] the test system is MDA-MB-231. The series can be described thus: Antiproliferative activity against human MDA-MB-231 cells assessed as inhibition of cell viability by MTT assay. It counts as functional, cell-based.
Series [14] deals with MDA-MB-231. In words: Antiproliferative activity against human MDA-MB-231 cells. It counts as functional, cell-based.
In series [15] the test system is HeLa. In words: Antiproliferative activity against human HeLa cells. It counts as functional, cell-based.
Series [16] deals with A549. In words: Antiproliferative activity against human A549 cells assessed as reduction in cell viability. It counts as functional, cell-based.
Series [17] deals with MCF7. In words: Antiproliferative activity against human MCF7 cells assessed as reduction in cell viability. It counts as functional, cell-based.
A short description of series [18]: Cytotoxicity against green monkey Vero cells. It counts as toxicity, cell-based. Conditions: green monkey (Chlorocebus sabaeus).
The subject of series [19] is HeLa. In words: Cytotoxicity against human HeLa cells. It counts as functional, cell-based.
The test system of series [20] is PC-3. In words: Anticancer activity against human PC-3 cells at 100 uM relative to control. It counts as functional.
Another series concerns LNCaP. In words: Anticancer activity against human LNCaP cells at 100 uM relative to control. It counts as functional.
Series [21] relates to HepG2. In words: Anticancer activity against human HepG2 cells at 200 microg/ml measured after 48 hrs relative to control. It counts as functional.
The subject of another series is 4T1. In words: Anticancer activity against mouse 4T1 cells at 200 microg/ml measured after 48 hrs relative to control. It counts as functional.
Series [22] relates to HepG2. In words: Antiproliferative activity against human HepG2 cells incubated for 2 days by MTT assay. Conditions: HepG2, 48 h. It counts as functional, cell-based.
Series [23] has as its system MCF7. In words: Antiproliferative activity against human MCF7 cells incubated for 2 days by MTT assay. The settings on record: MCF7, 48 h. It counts as functional, cell-based.
For another series, the system named is HT-29. The series can be described thus: Antiproliferative activity against human HT-29 cells incubated for 2 days by MTT assay. It counts as functional, cell-based. The settings on record: HT-29, 48 h.
The test system of another series is T47D. In words: Antiproliferative activity against human T47D cells incubated for 2 days by MTT assay. It counts as functional, cell-based. The settings on record: 48 h.
The next series relates to HFF. The series can be described thus: Antiproliferative activity against human HFF cells incubated for 2 days by MTT assay. It counts as functional, cell-based. Conditions: 48 h.
Series [24] concerns the target Tumour suppressor p53/oncoprotein Mdm2 (Homo sapiens) (UniProt P04637+Q00987). The series can be described thus: Inhibition of MDM2/p53 (unknown origin) interaction at 10 uM relative to control. It counts as protein assay.

In brackets after ≈: the same amount, converted by molar mass.

Tumour suppressor p53/oncoprotein Mdm2 (Homo sapiens), sequence (P04637 whole entry, looked up): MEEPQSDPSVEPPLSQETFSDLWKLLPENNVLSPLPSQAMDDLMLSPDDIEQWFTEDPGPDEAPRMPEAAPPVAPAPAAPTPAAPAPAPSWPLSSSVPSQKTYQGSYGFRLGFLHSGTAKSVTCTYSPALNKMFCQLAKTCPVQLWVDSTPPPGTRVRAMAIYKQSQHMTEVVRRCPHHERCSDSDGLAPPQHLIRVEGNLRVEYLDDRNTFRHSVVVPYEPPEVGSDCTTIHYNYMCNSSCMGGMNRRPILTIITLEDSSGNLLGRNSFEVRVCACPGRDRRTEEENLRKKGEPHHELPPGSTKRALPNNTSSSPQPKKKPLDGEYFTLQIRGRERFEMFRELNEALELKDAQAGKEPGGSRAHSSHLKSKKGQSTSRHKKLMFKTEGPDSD
Tumour suppressor p53/oncoprotein Mdm2 (Homo sapiens), sequence (Q00987 whole entry, looked up): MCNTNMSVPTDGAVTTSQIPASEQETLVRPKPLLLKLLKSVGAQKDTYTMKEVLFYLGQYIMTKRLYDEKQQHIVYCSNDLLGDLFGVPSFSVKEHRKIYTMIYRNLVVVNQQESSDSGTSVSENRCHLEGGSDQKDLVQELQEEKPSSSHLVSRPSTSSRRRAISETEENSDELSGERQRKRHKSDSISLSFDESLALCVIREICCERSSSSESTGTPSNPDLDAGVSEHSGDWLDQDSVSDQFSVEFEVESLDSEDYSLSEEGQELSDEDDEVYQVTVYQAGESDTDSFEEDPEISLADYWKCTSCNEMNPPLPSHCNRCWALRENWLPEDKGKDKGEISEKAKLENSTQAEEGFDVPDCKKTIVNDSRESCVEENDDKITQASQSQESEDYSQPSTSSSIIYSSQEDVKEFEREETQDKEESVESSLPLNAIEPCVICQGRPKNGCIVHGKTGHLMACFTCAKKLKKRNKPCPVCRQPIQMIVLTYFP

In the case of `O=C1/C(=C/c2ccc(Br)cc2)CCCC12[C@@H]1CCCN1[C@@]1(C(=O)Nc3ccccc31)[C@H]2c1ccc(Br)cc1` (some centres not stated), the IC50 worked out at 15.5 µM in the series on MCF7 [1] and 15.8 µM with K562.

Regarding `C[C@]12CC[C@H](O)CC1=CCC1C2CC[C@@]2(C)C1CC[C@@H]2C1=CC2(C(=O)Nc3ccc(F)cc32)C(C#N)=C(N)N1` (some centres not stated), the IC50 in the series with ECa-109 cell line amounted to 2.6 µM; in the series on SMMC-7721, 10.9 µM; with A549 [2], 21.3 µM; in the series on MGC-803 it was 13.8 µM.

In the case of `CN1CC(n2ccc3ccccc32)C(C#N)(C#N)C12C(=O)N(Cc1ccccc1)c1ccccc12` (configuration not stated), the Activity in the series on A-375 [3] was 97.29%; in the series on A-375 [4] it was 95.86%.

In the case of `CC1(C)CC(=O)C2C(C1)N(c1ccccc1F)C(=O)C21c2ccccc2NC2C(=O)CC(C)(C)CC21` (configuration not stated), the IC50 came out at 52.1 µM in the series with A-431, 7.82 µM in the series on MCF7 [5], 84.9 µM with PC-3 [6] and 36.3 µM in series [7].

Turning to `CCOC(=O)[C@H]1[C@@H](NO)[C@@H]2c3ccccc3OC(C)(C)[C@H]2[C@H](O)[C@]12C(=O)Nc1ccc(Cl)cc12`, the concentration for half-maximal inhibition (IC50) in the series with MCF7 [8] was 1.7 µM; with A549 [9], 5.9 µM; with HepG2 [10], 18.4 µM; in the series on HCT-116, 13 µM; in [11], 37.5 µM.

As to `Clc1cccc(Cl)c1C1=NO[C@@]2(CCCCO2)[C@H]1Br`, the concentration for half-maximal inhibition (IC50) is 52.4 µM in the series on MCF7 [12] and 43.1 µM in the series on MDA-MB-231 [13].

With `O=C1C=CC2(C=C1Br)OCC(=O)N2c1nc(-c2cccc(Cl)c2)nn1-c1ccccc1` (configuration not stated), the IC50 in the series with MDA-MB-231 [14] came to 0.0008 µM; in the series with HeLa [15], 0.0453 µM; in the series on A549 [16], 0.0252 µM; in the series on MCF7 [17], 0.00411 µM.

Consider `CCN1C(=O)C2(c3ccccc31)N(C)CC(n1ccc3ccccc31)C2(C#N)C#N` (configuration not stated), for which the Activity with A-375 [3] was found to be 95.86%; with A-375 [4] it was 85.69%.

As to `O=C(c1ccccn1)[C@@H]1[C@@H](c2ccc(Cl)cc2Cl)[C@H](c2ccccc2)NC12C(=O)Nc1ccccc12` (some centres not stated), the IC50 in series [18] amounted to 17 µg/mL (≈ 33 µM); in the series with HeLa [19] it was 16 µg/mL (≈ 31.1 µM).

For the compound `Cc1ccccc1/C=C/C(=O)c1ccc(OP2(Oc3ccc(C(=O)/C=C/c4ccccc4)cc3)=NP3(=NP4(=N2)Oc2ccccc2-c2ccccc2O4)Oc2ccccc2-c2ccccc2O3)cc1` (configuration not stated), the Activity with PC-3 [20] turned out to be 42.36%; in the series on LNCaP, 69.04%.

On to `C[C@]12CC[C@H](O)CC1=CCC1C2CC[C@@]2(C)C1CC[C@@H]2C1=CC2(C(=O)Nc3c(Cl)cccc32)C(C#N)=C(N)N1` (some centres not stated), for which the IC50 came out at 6.4 µM with ECa-109 cell line, 29.2 µM in the series on SMMC-7721, 33 µM with A549 [2] and 17.2 µM in the series on MGC-803.

`COc1ccc(C(=O)[C@H]2[C@]3(C(=O)Nc4ccc(Cl)cc43)[C@@H]3c4ccccc4CCN3[C@@]23C(=O)Nc2ccc(Cl)cc23)cc1`: the inhibition at 200 µg/mL is 70.1% in the series with HepG2 [21] and 23.2% in the series with 4T1.

Take `Cc1ccc(C(=O)[C@H]2[C@]3(C(=O)Nc4ccc(F)cc43)[C@@H]3c4ccccc4CCN3[C@@]23C(=O)Nc2ccc(Cl)cc23)cc1`: the inhibition at 200 µg/mL with HepG2 [21] is 73.5%; in the series with 4T1, 33.3%.

Take `COc1cc(C2=NOC3(Cc4ccccc4C3=O)C2c2ccc(S(C)(=O)=O)cc2)cc(OC)c1OC` (configuration not stated): the IC50 in the series with HepG2 [22] was 0.086 µM; in the series on MCF7 [23] it was 24.2 µM; in the series with HT-29, 69.3 µM; in the series with T47D it was 0.07 µM; in the series on HFF it was 2.32 µM.

With `NC(=O)C1CN(C(=O)N2CCCCC2)C2(C(=O)Nc3ccccc32)C1c1ccccc1O` (configuration not stated), the inhibition in series [24] turned out to be 65.4%.

With `O=C(/C=C/c1cccc(F)c1)c1ccc(OP2(Oc3ccc(C(=O)/C=C/c4cccc(F)c4)cc3)=NP3(=NP4(=N2)Oc2ccccc2-c2ccccc2O4)Oc2ccccc2-c2ccccc2O3)cc1`, the Activity in the series on PC-3 [20] was 43.71%; with LNCaP, 63.78%.

Regarding `O=C1/C(=C/c2c(Cl)cccc2Cl)CCCC12[C@@H]1CCCN1[C@@]1(C(=O)Nc3ccccc31)[C@H]2c1c(Cl)cccc1Cl` (some centres not stated), the IC50 stood at 19.4 µM in the series with MCF7 [1] and 16.6 µM with K562.

For orientation: IC50 means the midpoint of a concentration-inhibition curve. One may read the inhibition as the change of the read-out against control, counted positive when it falls.
